Source: article PMC9684079, “Pharmacological targeting of glutamatergic neurons within the brainstem for weight reduction” (Nature Metabolism, 2022)

Experiments:
mouse Hcrtr1 = target: T1, mouse Hcrtr1 (Mus musculus, UniProt P58307); test: FLIPR Ca2+ flux, antagonism of orexin A response; format: cell-based
T1 construct: CHO-K1 cells expressing Gα16 and mouse Hcrtr1

Hcrtr2 = target: T2, Hcrtr2 (Homo sapiens, UniProt O43614); test: radioligand displacement of [3H]EMPA (weak; functional IC50 […]); format: binding
T2 construct: membranes from CHO-K1 cells stably expressing HCRTR2

[1] = target: T3, Hcrtr1 (orexin 1 receptor) (Homo sapiens, UniProt O43613); test: radioligand displacement of [3H]SB674042; also FLIPR Ca2+ antagonism in Chem-1 cells (IC50 […]); format: binding
T3 construct: membranes from CHO-K1 cells stably expressing HCRTR1

Cyclooxygenase COX-1 = target: T4, Cyclooxygenase COX-1 (Homo sapiens, UniProt P23219); test: biochemical; parameters: Cerep/Eurofins selectivity panel, enzymes, per cent inhibition at 10 uM; conditions: read-out: % Inhibition
T4 construct: gene PTGS1

Monoamine Oxidase MAO-B = target: T5, Monoamine Oxidase MAO-B (Homo sapiens, UniProt P27338); test: biochemical; parameters: Cerep/Eurofins selectivity panel, enzymes, per cent inhibition at 10 uM; conditions: read-out: % Inhibition
T5 construct: gene MAOB

Peptidase, Factor Xa = target: T6, Peptidase, Factor Xa (Homo sapiens, UniProt P00742); test: biochemical; parameters: Cerep/Eurofins selectivity panel, enzymes, per cent inhibition at 10 uM; conditions: read-out: % Inhibition
T6 construct: gene F10; factor Xa

[2] = target: T7, Peptidase, Matrix metalloprotease-1 (MMP-1) (Homo sapiens, UniProt P03956); test: biochemical; parameters: Cerep/Eurofins selectivity panel, enzymes, per cent inhibition at 10 uM; conditions: read-out: % Inhibition
T7 construct: gene MMP1

[3] = target: T8, Peptidase, Matrix metalloprotease-13 (MMP-13) (Homo sapiens, UniProt P45452); test: biochemical; parameters: Cerep/Eurofins selectivity panel, enzymes, per cent inhibition at 10 uM; conditions: read-out: % Inhibition
T8 construct: gene MMP13

Peptidase, Renin = target: T9, Peptidase, Renin (Homo sapiens, UniProt P00797); test: biochemical; parameters: Cerep/Eurofins selectivity panel, enzymes, per cent inhibition at 10 uM; conditions: read-out: % Inhibition
T9 construct: gene REN

Phosphodiesterase PDE5 = target: T10, Phosphodiesterase PDE5 (Homo sapiens, UniProt O76074); test: biochemical; parameters: Cerep/Eurofins selectivity panel, enzymes, per cent inhibition at 10 uM; conditions: read-out: % Inhibition
T10 construct: gene PDE5A

[4] = target: Protein Serine/Threonine Kinase, GSK3B (Homo sapiens, UniProt P49841); test: biochemical; parameters: Cerep/Eurofins selectivity panel, enzymes, per cent inhibition at 10 uM; conditions: read-out: % Inhibition
[5] = target: Protein Serine/Threonine Kinase, MAP2K1 (MEK1) (Homo sapiens, UniProt Q02750); test: biochemical; parameters: Cerep/Eurofins selectivity panel, enzymes, per cent inhibition at 10 uM; conditions: read-out: % Inhibition
[6] = target: Protein Serine/Threonine Kinase, MAPK14 (p38a) (Homo sapiens, UniProt Q16539); test: biochemical; parameters: Cerep/Eurofins selectivity panel, enzymes, per cent inhibition at 10 uM; conditions: read-out: % Inhibition
[7] = target: Protein Serine/Threonine Kinase, MAPK3 (ERK1) (Homo sapiens, UniProt P27361); test: biochemical; parameters: Cerep/Eurofins selectivity panel, enzymes, per cent inhibition at 10 uM; conditions: read-out: % Inhibition
[8] = target: Protein Tyrosine Kinase, FES (Homo sapiens, UniProt P07332); test: biochemical; parameters: Cerep/Eurofins selectivity panel, enzymes, per cent inhibition at 10 uM; conditions: read-out: % Inhibition
[9] = target: T11, Protein Tyrosine Kinase, Insulin receptor (Homo sapiens, UniProt P06213); test: biochemical; parameters: Cerep/Eurofins selectivity panel, enzymes, per cent inhibition at 10 uM; conditions: read-out: % Inhibition
T11 construct: gene INSR

[10] = target: Protein Tyrosine Kinase, SRC (Homo sapiens, UniProt P12931); test: biochemical; parameters: Cerep/Eurofins selectivity panel, enzymes, per cent inhibition at 10 uM; conditions: read-out: % Inhibition
[11] = target: T12, Protein Serine/Threonine Kinase, ATK1 (PRKBA) (Homo sapiens, UniProt P31749); test: biochemical; parameters: Cerep/Eurofins selectivity panel, enzymes, per cent inhibition at 10 uM; conditions: read-out: % Inhibition
T12 construct: gene AKT1

[12] = target: T13, Nitric Oxide Synthase, neuronal (nNOS) (Rattus norvegicus, UniProt P29476); test: biochemical; parameters: Cerep/Eurofins selectivity panel, enzymes, per cent inhibition at 10 uM; conditions: read-out: % Inhibition
T13 construct: gene Nos1

[13] = target: Protein Serine/Threonine Kinase, CDC2/CCNB1 (CDK1/cyclinB) (Homo sapiens, UniProt P06493); test: biochemical; parameters: Cerep/Eurofins selectivity panel, enzymes, per cent inhibition at 10 uM; conditions: read-out: % Inhibition
[14] = target: T14, Peptidase, Matrix metalloprotease, neutral endopeptidase (Homo sapiens, UniProt P08473); test: biochemical; parameters: Cerep/Eurofins selectivity panel, enzymes, per cent inhibition at 10 uM; conditions: read-out: % Inhibition
T14 construct: gene MME

[15] = target: T15, Cholinesterase, Acetyl, ACES (Homo sapiens, UniProt P22303); test: biochemical; parameters: Cerep/Eurofins selectivity panel, enzymes, per cent inhibition at 10 uM
T15 construct: gene ACHE

[16] = target: Protein Tyrosine Kinase, LYN B (Homo sapiens, UniProt P07948); test: biochemical; parameters: Cerep/Eurofins selectivity panel, enzymes, per cent inhibition at 10 uM; conditions: read-out: % Inhibition
[17] = target: T16, Serotonin (5-Hydroxytryptamine) 5-HT4 (Cavia porcellus, UniProt O70528); test: biochemical; parameters: Cerep/Eurofins selectivity panel, receptors, channels and transporters, per cent inhibition at 10 uM; conditions: read-out: % Inhibition
T16 construct: gene HTR4

Androgen (Testosterone) = target: T17, Androgen (Testosterone) (Homo sapiens, UniProt P10275); test: biochemical; parameters: Cerep/Eurofins selectivity panel, receptors, channels and transporters, per cent inhibition at 10 uM; conditions: read-out: % Inhibition
T17 construct: gene AR

Glucocorticoid = target: T18, Glucocorticoid (Homo sapiens, UniProt P04150); test: biochemical; parameters: Cerep/Eurofins selectivity panel, receptors, channels and transporters, per cent inhibition at 10 uM; conditions: read-out: % Inhibition
T18 construct: gene NR3C1

Protein Tyrosine Kinase, LYN B, sequence (P07948 whole entry): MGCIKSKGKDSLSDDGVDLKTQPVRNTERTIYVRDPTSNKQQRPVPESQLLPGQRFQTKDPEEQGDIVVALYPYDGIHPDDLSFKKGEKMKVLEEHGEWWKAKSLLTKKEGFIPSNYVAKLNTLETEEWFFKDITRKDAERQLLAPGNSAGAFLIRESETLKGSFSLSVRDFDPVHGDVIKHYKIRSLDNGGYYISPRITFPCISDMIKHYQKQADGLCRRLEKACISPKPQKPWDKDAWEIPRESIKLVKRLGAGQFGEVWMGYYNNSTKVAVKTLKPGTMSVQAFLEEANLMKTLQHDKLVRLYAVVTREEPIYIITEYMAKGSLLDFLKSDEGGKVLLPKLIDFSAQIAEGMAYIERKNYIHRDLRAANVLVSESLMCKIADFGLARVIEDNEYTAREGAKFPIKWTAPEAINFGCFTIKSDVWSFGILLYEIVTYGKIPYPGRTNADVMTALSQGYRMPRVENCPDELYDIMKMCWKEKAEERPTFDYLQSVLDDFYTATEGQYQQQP
Protein Serine/Threonine Kinase, MAPK3 (ERK1), sequence (P27361 whole entry): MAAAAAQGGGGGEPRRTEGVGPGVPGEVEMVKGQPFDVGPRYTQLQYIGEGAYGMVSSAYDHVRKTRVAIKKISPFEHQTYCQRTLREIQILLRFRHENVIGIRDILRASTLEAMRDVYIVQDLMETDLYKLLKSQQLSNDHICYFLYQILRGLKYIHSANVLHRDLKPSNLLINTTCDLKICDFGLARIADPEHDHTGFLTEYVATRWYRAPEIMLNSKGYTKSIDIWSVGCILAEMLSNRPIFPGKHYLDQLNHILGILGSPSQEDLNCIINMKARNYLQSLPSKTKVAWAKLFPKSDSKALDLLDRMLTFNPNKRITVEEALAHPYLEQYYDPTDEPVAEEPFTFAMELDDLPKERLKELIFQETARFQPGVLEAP
T3 sequence (O43613 whole entry): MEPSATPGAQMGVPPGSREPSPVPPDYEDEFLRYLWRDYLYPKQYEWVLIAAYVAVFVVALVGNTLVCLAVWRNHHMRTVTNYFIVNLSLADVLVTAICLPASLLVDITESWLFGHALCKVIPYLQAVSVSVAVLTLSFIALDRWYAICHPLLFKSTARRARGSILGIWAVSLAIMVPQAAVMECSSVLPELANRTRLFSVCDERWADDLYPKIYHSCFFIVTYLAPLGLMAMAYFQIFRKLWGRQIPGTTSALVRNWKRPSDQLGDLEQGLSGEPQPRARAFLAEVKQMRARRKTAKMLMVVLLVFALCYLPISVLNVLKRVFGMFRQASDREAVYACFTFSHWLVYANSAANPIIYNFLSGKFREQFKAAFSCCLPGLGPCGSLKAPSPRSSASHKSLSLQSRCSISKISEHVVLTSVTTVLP
T15 sequence (P22303 whole entry): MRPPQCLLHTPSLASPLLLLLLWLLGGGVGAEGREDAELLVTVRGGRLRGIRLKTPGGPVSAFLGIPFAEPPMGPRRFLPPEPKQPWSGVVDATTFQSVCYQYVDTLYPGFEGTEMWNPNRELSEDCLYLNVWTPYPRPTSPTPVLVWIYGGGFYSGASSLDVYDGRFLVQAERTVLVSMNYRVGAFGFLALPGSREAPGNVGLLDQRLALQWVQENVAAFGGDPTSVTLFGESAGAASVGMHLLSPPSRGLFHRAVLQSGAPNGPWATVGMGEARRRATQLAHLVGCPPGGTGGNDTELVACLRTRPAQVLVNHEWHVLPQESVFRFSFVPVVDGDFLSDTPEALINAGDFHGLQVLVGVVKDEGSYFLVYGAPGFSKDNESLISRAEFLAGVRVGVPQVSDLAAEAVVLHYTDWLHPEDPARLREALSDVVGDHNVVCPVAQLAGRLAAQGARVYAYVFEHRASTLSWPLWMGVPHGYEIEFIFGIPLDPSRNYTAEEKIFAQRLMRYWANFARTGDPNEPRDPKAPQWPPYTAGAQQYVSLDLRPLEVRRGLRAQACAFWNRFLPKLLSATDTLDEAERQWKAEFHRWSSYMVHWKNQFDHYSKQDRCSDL
T1 sequence (P58307 whole entry): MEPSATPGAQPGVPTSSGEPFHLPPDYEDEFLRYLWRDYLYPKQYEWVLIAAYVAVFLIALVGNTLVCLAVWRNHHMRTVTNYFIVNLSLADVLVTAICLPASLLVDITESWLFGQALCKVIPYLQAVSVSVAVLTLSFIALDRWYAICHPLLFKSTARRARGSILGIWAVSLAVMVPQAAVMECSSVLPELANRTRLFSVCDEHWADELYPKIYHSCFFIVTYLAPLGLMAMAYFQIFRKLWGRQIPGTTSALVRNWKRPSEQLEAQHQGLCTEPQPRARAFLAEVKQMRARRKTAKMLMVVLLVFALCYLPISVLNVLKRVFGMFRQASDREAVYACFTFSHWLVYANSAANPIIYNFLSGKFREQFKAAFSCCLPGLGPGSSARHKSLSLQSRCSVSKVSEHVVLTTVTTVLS
T13 sequence (P29476 whole entry): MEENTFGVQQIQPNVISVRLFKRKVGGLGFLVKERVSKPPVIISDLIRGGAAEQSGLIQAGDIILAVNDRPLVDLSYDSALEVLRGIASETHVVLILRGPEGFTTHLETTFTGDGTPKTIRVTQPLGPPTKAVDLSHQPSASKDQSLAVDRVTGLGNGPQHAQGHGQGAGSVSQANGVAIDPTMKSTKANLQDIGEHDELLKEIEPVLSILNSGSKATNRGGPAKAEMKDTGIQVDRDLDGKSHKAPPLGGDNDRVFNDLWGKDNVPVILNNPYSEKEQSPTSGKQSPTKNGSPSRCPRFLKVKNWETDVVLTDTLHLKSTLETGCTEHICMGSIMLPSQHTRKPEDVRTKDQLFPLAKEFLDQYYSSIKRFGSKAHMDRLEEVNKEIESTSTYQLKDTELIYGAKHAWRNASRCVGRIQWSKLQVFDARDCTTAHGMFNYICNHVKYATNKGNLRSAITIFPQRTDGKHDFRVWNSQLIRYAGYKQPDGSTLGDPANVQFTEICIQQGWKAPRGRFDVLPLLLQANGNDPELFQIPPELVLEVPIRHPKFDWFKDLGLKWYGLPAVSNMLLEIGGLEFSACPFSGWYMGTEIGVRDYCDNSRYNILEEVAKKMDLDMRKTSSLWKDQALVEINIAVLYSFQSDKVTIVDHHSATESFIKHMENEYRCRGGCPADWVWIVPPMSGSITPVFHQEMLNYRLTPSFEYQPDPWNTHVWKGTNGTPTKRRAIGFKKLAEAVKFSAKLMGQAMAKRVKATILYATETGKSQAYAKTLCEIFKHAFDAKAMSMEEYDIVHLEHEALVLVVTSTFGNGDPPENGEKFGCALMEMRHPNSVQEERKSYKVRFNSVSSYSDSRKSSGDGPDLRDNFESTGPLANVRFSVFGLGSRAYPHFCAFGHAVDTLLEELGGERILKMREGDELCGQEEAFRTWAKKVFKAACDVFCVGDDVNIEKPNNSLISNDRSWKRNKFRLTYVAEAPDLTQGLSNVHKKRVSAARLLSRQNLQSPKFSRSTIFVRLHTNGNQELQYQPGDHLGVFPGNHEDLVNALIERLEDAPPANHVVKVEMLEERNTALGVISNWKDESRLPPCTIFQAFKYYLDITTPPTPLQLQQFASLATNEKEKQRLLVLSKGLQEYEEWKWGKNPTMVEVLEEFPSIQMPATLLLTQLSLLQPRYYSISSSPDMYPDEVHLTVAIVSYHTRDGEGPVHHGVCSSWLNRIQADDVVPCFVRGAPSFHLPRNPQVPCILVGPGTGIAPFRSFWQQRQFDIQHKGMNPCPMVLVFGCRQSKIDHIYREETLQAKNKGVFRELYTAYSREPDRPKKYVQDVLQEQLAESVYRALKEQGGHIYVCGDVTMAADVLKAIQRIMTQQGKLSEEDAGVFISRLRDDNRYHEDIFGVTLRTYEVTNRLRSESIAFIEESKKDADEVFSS
Protein Serine/Threonine Kinase, CDC2/CCNB1 (CDK1/cyclinB), sequence (P06493 whole entry): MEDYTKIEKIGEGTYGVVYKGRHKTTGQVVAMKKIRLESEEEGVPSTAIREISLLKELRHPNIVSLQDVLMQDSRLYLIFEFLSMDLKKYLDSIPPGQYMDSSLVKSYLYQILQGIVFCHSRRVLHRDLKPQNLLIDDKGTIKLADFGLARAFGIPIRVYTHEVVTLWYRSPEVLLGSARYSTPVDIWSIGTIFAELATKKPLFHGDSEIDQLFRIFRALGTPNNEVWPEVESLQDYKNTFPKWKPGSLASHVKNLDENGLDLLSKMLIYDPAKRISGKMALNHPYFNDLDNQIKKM
Protein Serine/Threonine Kinase, CDC2/CCNB1 (CDK1/cyclinB), sequence (P14635 whole entry partner): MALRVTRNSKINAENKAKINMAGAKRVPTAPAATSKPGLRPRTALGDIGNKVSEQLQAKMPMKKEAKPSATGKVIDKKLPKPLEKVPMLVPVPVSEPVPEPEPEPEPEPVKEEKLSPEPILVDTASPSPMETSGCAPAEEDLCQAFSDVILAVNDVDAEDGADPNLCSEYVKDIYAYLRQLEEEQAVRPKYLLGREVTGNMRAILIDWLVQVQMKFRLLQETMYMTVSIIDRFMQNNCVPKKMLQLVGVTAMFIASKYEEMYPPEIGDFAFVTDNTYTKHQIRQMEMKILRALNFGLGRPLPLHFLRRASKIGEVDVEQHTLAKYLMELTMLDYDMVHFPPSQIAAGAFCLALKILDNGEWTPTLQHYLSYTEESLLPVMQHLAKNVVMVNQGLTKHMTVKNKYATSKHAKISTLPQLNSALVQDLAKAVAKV
T9 sequence (P00797 whole entry): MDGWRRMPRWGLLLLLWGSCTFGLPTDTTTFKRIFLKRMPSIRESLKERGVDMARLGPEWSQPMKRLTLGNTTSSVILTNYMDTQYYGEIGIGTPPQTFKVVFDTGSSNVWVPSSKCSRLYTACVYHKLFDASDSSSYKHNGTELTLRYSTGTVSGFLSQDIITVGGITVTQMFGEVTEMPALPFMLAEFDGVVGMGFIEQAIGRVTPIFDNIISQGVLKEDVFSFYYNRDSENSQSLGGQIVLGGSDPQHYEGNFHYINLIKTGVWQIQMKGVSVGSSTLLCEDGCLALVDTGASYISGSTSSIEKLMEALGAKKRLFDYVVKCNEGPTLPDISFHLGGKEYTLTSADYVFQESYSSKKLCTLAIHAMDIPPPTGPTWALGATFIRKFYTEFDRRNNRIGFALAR

What does the source list for `C[C@]1(Nc2cnc(C(F)(F)F)cn2)CCC[C@@H]1NC(=O)c1ncccc1-n1nccn1` [CVN45502]?
IC50 (mouse Hcrtr1): 18 nM; Ki (Hcrtr2): 4.66 pKi; Ki [1]: 13.8 nM; inhibition at 10 µM (Cyclooxygenase COX-1): 5%; inhibition at 10 µM (Monoamine Oxidase MAO-B): 8%; inhibition at 10 µM (Peptidase, Factor Xa): -2%; inhibition at 10 µM [2]: 18%; inhibition at 10 µM [3]: -4%; inhibition at 10 µM (Peptidase, Renin): 10%; inhibition at 10 µM (Phosphodiesterase PDE5): 29%; inhibition at 10 µM [4]: 8%; inhibition at 10 µM [5]: -4%; inhibition at 10 µM [6]: -1%; inhibition at 10 µM [7]: 8%; inhibition at 10 µM [8]: -13%; inhibition at 10 µM [9]: -14%; inhibition at 10 µM [10]: -7%; inhibition at 10 µM [11]: -7%; inhibition at 10 µM [12]: 22%; inhibition at 10 µM [13]: 14%; inhibition at 10 µM [14]: 4%; inhibition at 10 µM [15]: -8%; inhibition at 10 µM [16]: 6%; inhibition at 10 µM [17]: -4%; inhibition at 10 µM (Androgen (Testosterone)): -5%; inhibition at 10 µM (Glucocorticoid): 13%
